In ChEMBL document CHEMBL1201862, “PubChem BioAssay data set” (2004):
The source made the active and inactive calls.

Columns and labels:
[1] = Luminescence Cell-Based Dose Response to Identify Activators of 5'UTR Stem-Loop Driven Prion Protein mRNA Translation in H4-C Neuroglioblastoma Cells. [Related pubchem assays: 1829 (Project Summary), 1814 (Primary HTS)]; format: functional
[2] = Luminescence Cell-Based Dose Response HTS to Identify Activators of Luciferase Translation or Activity in H4 […] Cells. [Related pubchem assays: 1829 (Project Summary), 1814 (Primary HTS)]; format: functional
H4 = assay: Luminescence Cell-Based Dose Response HTS to Identify Activators of 5'UTR Stem-Loop Driven Prion Protein mRNA Translation in H4 Neuroglioblastoma Cells. [Related pubchem assays: 1829 (Project Summary), 1814 (Primary HTS)]; format: functional; conditions: Homo sapiens
[3] = Luminescence Cell-Based Dose Response to Identify Activators of Luciferase Translation or Activity in H4-C Neuroglioblastoma Cells. [Related pubchem assays: 1829 (Project Summary), 1814 (Primary HTS)]; format: functional
[4] = Luminescence Cell-Based Dose Confirmation to Identify Activators of 5'UTR Stem-Loop Driven Alpha-Synuclein mRNA Translation in H4 Neuroglioblastoma Cells. [Related pubchem assays: 1829 (Project Summary), 1814 (Primary HTS)]; format: functional
[5] = target: T1, High affinity choline transporter 1 (Homo sapiens, UniProt Q9GZV3); assay: CHT inhibitors, dose response, cell-based, 5-point CRC, membrane potential dye (AID 504840); format: functional
T1 sequence (Q9GZV3 whole entry): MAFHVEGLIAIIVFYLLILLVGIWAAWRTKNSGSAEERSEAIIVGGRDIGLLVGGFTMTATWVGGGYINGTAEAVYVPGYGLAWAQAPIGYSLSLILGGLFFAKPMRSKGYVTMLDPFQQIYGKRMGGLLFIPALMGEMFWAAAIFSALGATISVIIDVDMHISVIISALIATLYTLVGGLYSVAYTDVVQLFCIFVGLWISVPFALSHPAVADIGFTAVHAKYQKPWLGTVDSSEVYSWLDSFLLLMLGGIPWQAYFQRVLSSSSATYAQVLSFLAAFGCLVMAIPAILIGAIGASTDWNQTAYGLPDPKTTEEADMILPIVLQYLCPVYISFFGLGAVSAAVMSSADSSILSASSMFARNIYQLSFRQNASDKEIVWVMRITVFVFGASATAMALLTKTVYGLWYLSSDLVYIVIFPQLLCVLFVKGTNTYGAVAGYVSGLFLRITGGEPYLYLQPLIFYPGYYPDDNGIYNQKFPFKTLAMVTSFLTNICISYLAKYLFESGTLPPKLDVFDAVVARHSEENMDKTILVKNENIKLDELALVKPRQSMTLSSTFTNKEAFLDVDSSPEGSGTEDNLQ

[6] = target: T2, DNA repair protein RAD52 homolog (Homo sapiens, UniProt P43351); format: functional, biochemical
T2 sequence (P43351 whole entry): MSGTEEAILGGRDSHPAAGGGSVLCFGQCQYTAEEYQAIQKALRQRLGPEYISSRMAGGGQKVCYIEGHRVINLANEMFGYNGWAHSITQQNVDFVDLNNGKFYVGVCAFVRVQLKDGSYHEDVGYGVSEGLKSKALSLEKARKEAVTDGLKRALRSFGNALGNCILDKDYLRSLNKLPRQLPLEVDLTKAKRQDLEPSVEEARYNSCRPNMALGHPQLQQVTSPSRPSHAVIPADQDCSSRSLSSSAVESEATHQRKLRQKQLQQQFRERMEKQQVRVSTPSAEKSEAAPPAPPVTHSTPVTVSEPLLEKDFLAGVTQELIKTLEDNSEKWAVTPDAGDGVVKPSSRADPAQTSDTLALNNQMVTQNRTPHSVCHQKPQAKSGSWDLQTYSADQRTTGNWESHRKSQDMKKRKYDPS

Nonstructural protein 1 = Nonstructural protein 1 (Influenza A virus, UniProt Q194T2); format: functional, Influenza A virus (A/California/07/2009(H1N1))
Sequence of Nonstructural protein 1 (Q194T2 whole entry): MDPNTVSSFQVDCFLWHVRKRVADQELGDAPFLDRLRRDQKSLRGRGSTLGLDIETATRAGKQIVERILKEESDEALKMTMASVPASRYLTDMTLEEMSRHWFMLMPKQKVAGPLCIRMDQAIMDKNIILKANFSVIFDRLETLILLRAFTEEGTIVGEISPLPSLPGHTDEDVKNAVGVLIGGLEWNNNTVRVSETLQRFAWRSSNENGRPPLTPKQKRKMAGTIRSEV

[7] = inhibitors of intracellular T. cruzi replication, confirmation, NIH3T3 host cells, beta-gal luminescence (AID 2044); format: functional, cell-based;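 also: intracellular parasites grown in NIH/3T3 mouse fibroblasts as host cells; luminescent beta-galactosidase reporter signal from transgenic T. cruzi replicating inside host cells; inhibitors lower the luminescence signal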
[8] = cytotoxicity toward NIH3T3 fibroblasts, dose response, counter-screen, cell-based, ATP luminescence, mouse fibroblasts (AID 2010); format: functional;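 also: cells exposed to compound for about 90 hours before reading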
[9] = target: T3, Heat shock factor protein 1 (Mus musculus, UniProt P38532); assay: inhibition of MG132-induced HSE-luciferase signal, confirmation, cell-based, NIH3T3, luminescence, dose retest (AID 2382); format: functional;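 also: NIH3T3 fibroblasts with HSF1-driven luciferase reporter stressed by proteasome inhibitor MG132; luminescence from HSF1-driven luciferase expression after 8 hours of MG132 stress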
T3 sequence (P38532 whole entry): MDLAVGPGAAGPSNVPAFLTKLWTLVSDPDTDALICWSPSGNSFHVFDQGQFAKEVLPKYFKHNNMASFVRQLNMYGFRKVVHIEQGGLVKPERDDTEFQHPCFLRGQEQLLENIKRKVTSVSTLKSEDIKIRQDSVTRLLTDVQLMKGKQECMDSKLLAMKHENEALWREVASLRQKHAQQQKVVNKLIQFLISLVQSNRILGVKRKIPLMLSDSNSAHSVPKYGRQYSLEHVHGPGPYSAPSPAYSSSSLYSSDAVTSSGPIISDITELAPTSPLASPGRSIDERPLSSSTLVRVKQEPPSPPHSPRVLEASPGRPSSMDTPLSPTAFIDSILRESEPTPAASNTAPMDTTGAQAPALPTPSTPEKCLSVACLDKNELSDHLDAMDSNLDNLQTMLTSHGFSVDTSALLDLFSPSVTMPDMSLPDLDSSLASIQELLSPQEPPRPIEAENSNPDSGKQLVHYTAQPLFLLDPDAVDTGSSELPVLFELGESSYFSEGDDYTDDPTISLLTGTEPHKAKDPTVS

[10] = target: T4, Long-chain-fatty-acid--AMP ligase FadD28 (Mycobacterium tuberculosis, UniProt P9WQ59); assay: Fluorescence polarization aasay to screen for inhibitors that compete for the binding of FadD28 to a bisubstrate Measured in Biochemical System Using Plate Reader - 2147-01_Inhibitor_Dose_CherryPick_Activity.; format: functional, Mycobacterium tuberculosis H37Rv
T4 sequence (P9WQ59 whole entry): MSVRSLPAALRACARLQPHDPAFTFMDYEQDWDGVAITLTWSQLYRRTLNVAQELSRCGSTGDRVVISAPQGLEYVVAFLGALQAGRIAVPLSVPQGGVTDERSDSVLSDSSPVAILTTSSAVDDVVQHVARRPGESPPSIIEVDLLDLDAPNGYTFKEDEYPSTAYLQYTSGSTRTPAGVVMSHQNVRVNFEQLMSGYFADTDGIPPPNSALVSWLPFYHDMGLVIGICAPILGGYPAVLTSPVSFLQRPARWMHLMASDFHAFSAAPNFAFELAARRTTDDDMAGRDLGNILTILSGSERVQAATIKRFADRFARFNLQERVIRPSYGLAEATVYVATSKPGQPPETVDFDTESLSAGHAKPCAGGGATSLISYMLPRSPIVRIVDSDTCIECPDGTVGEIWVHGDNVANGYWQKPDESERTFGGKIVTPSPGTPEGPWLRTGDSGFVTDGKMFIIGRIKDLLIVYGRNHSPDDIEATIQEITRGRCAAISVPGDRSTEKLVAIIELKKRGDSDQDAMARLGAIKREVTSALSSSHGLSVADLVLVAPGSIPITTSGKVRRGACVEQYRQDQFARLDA

Large T antigen = Large T antigen (Simian virus 40, UniProt P03070); format: functional, Betapolyomavirus macacae;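 also: Confirmatory-stage PubChem screen for compounds that inhibit SV40 T antigen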
Sequence of Large T antigen (P03070 whole entry): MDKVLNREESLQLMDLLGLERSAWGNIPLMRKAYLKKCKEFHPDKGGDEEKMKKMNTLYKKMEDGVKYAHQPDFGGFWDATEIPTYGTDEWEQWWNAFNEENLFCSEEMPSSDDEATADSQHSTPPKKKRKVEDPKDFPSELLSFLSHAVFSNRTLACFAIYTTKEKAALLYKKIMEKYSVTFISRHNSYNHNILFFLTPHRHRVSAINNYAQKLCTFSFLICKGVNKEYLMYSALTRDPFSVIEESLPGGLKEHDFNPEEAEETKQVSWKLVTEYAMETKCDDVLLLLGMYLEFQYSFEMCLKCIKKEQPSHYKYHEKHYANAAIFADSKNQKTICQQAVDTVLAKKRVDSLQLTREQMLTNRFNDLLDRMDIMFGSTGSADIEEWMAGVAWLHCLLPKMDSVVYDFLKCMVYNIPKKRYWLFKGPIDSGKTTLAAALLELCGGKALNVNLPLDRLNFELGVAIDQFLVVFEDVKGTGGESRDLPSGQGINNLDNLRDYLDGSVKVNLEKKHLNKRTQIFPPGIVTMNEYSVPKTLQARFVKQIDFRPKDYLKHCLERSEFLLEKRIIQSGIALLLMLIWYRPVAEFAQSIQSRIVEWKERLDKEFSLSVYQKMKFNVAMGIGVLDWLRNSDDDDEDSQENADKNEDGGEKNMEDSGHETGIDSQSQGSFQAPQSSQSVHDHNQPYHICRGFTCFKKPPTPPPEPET

[11] = target: Induced myeloid leukemia cell differentiation protein Mcl-1 (Homo sapiens, UniProt Q07820); format: functional
Sequence of Induced myeloid leukemia cell differentiation protein Mcl-1 (Q07820 whole entry): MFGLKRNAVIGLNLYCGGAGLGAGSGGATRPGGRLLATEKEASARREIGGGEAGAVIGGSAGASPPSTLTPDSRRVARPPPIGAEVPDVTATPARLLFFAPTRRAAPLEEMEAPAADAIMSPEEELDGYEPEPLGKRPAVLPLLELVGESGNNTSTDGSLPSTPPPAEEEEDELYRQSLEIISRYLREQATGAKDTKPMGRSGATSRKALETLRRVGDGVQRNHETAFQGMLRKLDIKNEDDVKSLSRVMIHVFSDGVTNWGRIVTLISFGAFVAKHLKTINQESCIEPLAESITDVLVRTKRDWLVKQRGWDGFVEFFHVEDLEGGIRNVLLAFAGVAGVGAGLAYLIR

[12] = growth suppression of PTEN-null colon cells, dose response, cell-based, HCT116 PTEN knockout (AID 1047); format: functional;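 also: HCT116 colon tumor cells with PTEN knocked out; cells exposed to compound for 60 hours before readout; potency for loss of cell viability measured by luminescence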
[13] = growth suppression of beta-catenin-knockout colon cells, dose response, cell-based, HCT116, human colon tumor (AID 1045); format: functional;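 also: HCT116 colon tumor cells with beta catenin knocked out; cells exposed to compound for 60 hours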
[14] = inhibitors of HIV Env-driven cell fusion, dose response, cherry-pick (AID 652057); format: functional, cell-based
[15] = ZM109 Env clade C HIV-1 fusion inhibitors, dose response, HeLa effector, CEM target cells, luciferase, cherry-pick (AID 652058); format: functional, cell-based
[16] = off-target signal loss in HeLa-CEM21 co-culture – HeLa F-luc CTL cells, cherry-picked, counter-screen for HIV-1 Env fusion inhibitor project, dose response (AID 652040); format: functional, cell-based;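 also: potency for signal decrease marking cytotoxic or nonspecific inhibition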
[17] = inhibitors of clade B AD8 Env fusion, dose response, cell-based, cherry-pick (AID 652062); format: functional;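 also: luciferase signal from cell-cell fusion driven by HIV-1 clade B AD8 Env; potency is for inhibitors of fusion seen as a drop in luminescence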

For `COc1ccc(N=C(S)Nc2cc(C)ccn2)c(OC)c1`, the EC50 [1] was 393 nM (active), the EC50 [2] was < 100 nM (inconclusive) and the EC50 (H4) was > 120 µM (not active). For the same molecule, the EC50 [3] was > 12 µM (not active) and the EC50 [4] was 256 nM (active).
With `O=C(/C=C/c1cn(-c2ccccc2)nc1-c1ccc2c(c1)OCCO2)NCCCN1CCOCC1` the IC50 [5] was 20 µM (active) and the AC50 [6] was 16.1 µM (active).
With `CCOc1cccc(=NC2CCCCC2)c2c(C)[nH]c(C)c12` the IC50 (Nonstructural protein 1) was 68.8 µM (active) and the AC50 [6] was 3.49 µM (active).
For `COc1ccc(N2CCc3c(C)nc4c(OC)cc(OC)cc4c32)cc1`, the EC50 [7] was 970 nM (active), the EC50 [8] was 36.5 µM (active) and the AC50 [6] was 3.96 µM (active).
With `CCS(=O)(=O)c1nc(S(=O)(=O)c2ccc(C)cc2)c(N2CC(C)OC(C)C2)s1` (stereo unspecified) the EC50 [1] was > 12000 nM (not active), the EC50 [2] was < 100 nM (active) and the EC50 (H4) was > 120 µM (not active). For the same molecule, the EC50 [3] was > 12 µM (not active) and the EC50 [4] was 810 nM (active).
For `COc1cccc(NC(=O)Cn2c(=O)oc3cc(S(=O)(=O)N4CCCC4)ccc32)c1`, the EC50 [9] was > 195 µM (not active) and the AC50 [10] was 44.5 µM (active).
For `O=C(NCc1ccccc1)c1cnc2cc3c(cc2c1O)OCCO3`, the EC50 [1] was 421 nM (active), the EC50 [2] was < 100 nM (active) and the EC50 (H4) was 0.282 µM (active). For the same molecule, the EC50 [3] was 0.334 µM (active) and the EC50 [4] was 200 nM (active).
In the case of `CN(C)c1ccc(Nc2nc(N)c([N+](=O)[O-])c(N3CCOCC3)n2)cc1`, the IC50 (Large T antigen) was 3.84 µM (active) and the IC50 [11] was 800 nM (active).
In the case of `Nc1c(S(=O)(=O)c2cccs2)c2nc3ccccc3nc2n1CCc1ccccc1`, the EC50 [12] was 27 µM (active), the EC50 [13] was 30 µM (active) and the AC50 [14] was 9.23 µM (active). For the same molecule, the AC50 [15] was 9.26 µM (active) and the AC50 [16] was 12.7 µM (active).
In the case of `COc1ccc(CN2CCC(C)(Oc3ccc4c(c3)OCO4)C2)c2ccccc12` (stereo unspecified), the AC50 [14] was 6.46 µM (active), the AC50 [15] was 10.1 µM (active) and the AC50 [16] was 12.2 µM (active). The AC50 [17] was 10.1 µM (active).
In the case of `C[C@H]1CN([C@@H](C)CO)C(=O)Cc2cc(NC(=O)Cc3cn(C)c4ccccc34)ccc2O[C@H]1CN(C)S(=O)(=O)c1ccccc1`, the AC50 [14] was 12.7 µM (active), the AC50 [15] was 9.19 µM (active) and the AC50 [17] was 23.5 µM (active).
In the case of `CCc1nc2ccc(C(=O)NCCN3CCNC3=O)cn2c1N(CC)Cc1cccc(Br)c1`, the AC50 [14] was 1.18 µM (active), the AC50 [15] was 1.74 µM (active) and the AC50 [16] was 1.85 µM (active). The AC50 [17] was 3.08 µM (active).
For `CN(C[C@@H](CC1CCCCC1)N(C[C@H](Cc1ccccc1)N(CCc1ccccc1)N=O)N=O)N=O`, the AC50 [14] was 5.14 µM (active), the AC50 [15] was 8.38 µM (active) and the AC50 [16] was 6.56 µM (active). For the same molecule, the AC50 [17] was 42.9 µM (active).
In the case of `O=C(N/N=C/c1ccc2c(c1)OCO2)c1ccc(Br)o1`, the EC50 [1] was 855 nM (active), the EC50 [2] was < 100 nM (inconclusive) and the EC50 (H4) was 18.6 µM (inconclusive). The EC50 [3] was 0.433 µM (active) and the EC50 [4] was 371 nM (active).
